According to patent USH1923H, “Herbicidal (oxaalkyl) phenyl-substituted heterocycles” (FMC Corporation, priority 1998, dated 2000):

Legend:
[1] = tested on: corn; experiment: preemergence herbicidal activity on corn; type: in vivo, Zea mays var. Pioneer 3732; details: Zea mays, pre-emergence, 0.3 Kg/Ha, after 12-17 days, read-out: PREEMERGENCE HERBICIDAL ACTIVITY (% CONTROL) CRN
Description: (§1) The (oxaalkyl)phenyl-substituted heterocycles of this invention were tested for pre- and postemergence herbicidal activity using a variety of crops and weeds. The test plants included soybean (Glycine max var. Winchester),field corn (Zea mays var. Pioneer 3732), wheat (Triticum aestivum var. Lew), morningglory (Ipomea lacunosa or Ipomea hederacea), […] (Abutilon theophrasti), green foxtail (Setaria viridis), Johnsongrass (Sorghum halepense), blackgrass (Aloepecurus myosuroides), common chickweed (Stellaria media), and common cocklebur (Xanthium strumarium L.).
(§2) For preemergence testing, two disposable fiber flats (8 cm×15 cm×25 cm) for each rate of application of each candidate herbicide were filled to an approximate depth of 6.5 cm with steam-sterilized sandy loam soil. The soil was leveled and impressed with a template to provide five evenly spaced furrows 13 cm long and 0.5 cm deep in each flat. Seeds of soybean, wheat, corn, green foxtail, and johnsongrass were planted in the furrows of the first flat, and seeds of velvetleaf, morningglory, common chickweed, cocklebur, and blackgrass were planted in the furrows of the second flat. The five-row template was employed to firmly press the seeds into place. A topping soil of equal portions of sand and sandy loam soil was placed uniformly on top of each flat to a depth of approximately 0.5 cm. Flats for postemergence testing were prepared in the same manner except that they were planted 9-14 days prior to the preemergence flats and were placed in a greenhouse and watered, thus allowing the seeds to germinate and the foliage to develop.
(§3) In both pre- and postemergence tests, a stock solution of the candidate herbicide was prepared by dissolving 0.27 g of the compound in 20 mL of water/acetone (50/50) containing 0.5% v/v sorbitan monolaurate. For an application rate of 3000 g/ha of herbicide a 10 mL portion of the stock solution was diluted with water/acetone (50/50) to 45 mL.
(§4) The preemergence flats were initially subjected to a light water spray. The four flats were placed two by two along a conveyor belt (i.e., the two preemergence followed by the two postemergence flats). The conveyor belt fed under a spray nozzle mounted about ten inches above the postemergent foliage. The preemergent flats were elevated on the belt so that the soil surface was at the same level below the spray nozzle as the foliage canopy of the postemergent plants. The spray of herbicidal solution was commenced and once stabilized, the flats were passed under the spray at a speed to receive a coverage equivalent of 1000 L/ha. At this coverage the application rates are those shown in the above table for the individual herbicidal solutions. The preemergence flats were watered immediately thereafter, placed in the greenhouse and watered regularly at the soil surface. The postemergence flats were immediately placed in the green-house and not watered until 24 hours after treatment with the test solution. Thereafter they were regularly watered at ground level. After 12-17 days the plants were examined and the phytotoxicity data were recorded.
(§5) Phytotoxicity data were taken as percent control. Percent control was by a method similar to the 0 to 1 00 rating system disclosed in "Research Methods in Weed Science," 2nd ed., B. Truelove, Ed.; Southern Weed Science Society; Auburn University, Auburn, Ala., 1977.

[2] = tested on: soybean; experiment: postemergence herbicidal activity on soybean; type: in vivo, Glycine max var. Winchester; details: Glycine max, post-emergence, 0.3 Kg/Ha, after 12-17 days, read-out: POSTEMERGENCE HERBICIDAL ACTIVITY (% CONTROL) SOY
Description: as §1, §2, §3, §4, §5

[3] = tested on: chickweed; experiment: postemergence herbicidal activity on chickweed; type: in vivo; details: Stellaria media, post-emergence, 0.3 Kg/Ha, after 12-17 days, read-out: POSTEMERGENCE HERBICIDAL ACTIVITY (% CONTROL) STEME
Description: as §1, §2, §3, §4, §5

[4] = tested on: wheat; experiment: postemergence herbicidal activity on wheat; type: in vivo, Triticum aestivum var. Lew; details: Triticum aestivum, post-emergence, 0.3 Kg/Ha, after 12-17 days, read-out: POSTEMERGENCE HERBICIDAL ACTIVITY (% CONTROL) WHT
Description: as §1, §2, §3, §4, §5

[5] = tested on: soybean; experiment: preemergence herbicidal activity on soybean; type: in vivo, Glycine max var. Winchester; details: Glycine max, pre-emergence, 0.3 Kg/Ha, after 12-17 days, read-out: PREEMERGENCE HERBICIDAL ACTIVITY (% CONTROL) SOY
Description: as §1, §2, §3, §4, §5

[6] = tested on: wheat; experiment: preemergence herbicidal activity on wheat; type: in vivo, Triticum aestivum var. Lew; details: Triticum aestivum, pre-emergence, 0.3 Kg/Ha, after 12-17 days, read-out: PREEMERGENCE HERBICIDAL ACTIVITY (% CONTROL) WHT
Description: as §1, §2, §3, §4, §5

[7] = tested on: green foxtail; experiment: postemergence herbicidal activity on green foxtail; type: in vivo; details: Setaria viridis, post-emergence, 0.3 Kg/Ha, after 12-17 days, read-out: POSTEMERGENCE HERBICIDAL ACTIVITY (% CONTROL) SETVI
Description: as §1, §2, §3, §4, §5

[8] = tested on: cocklebur; experiment: preemergence herbicidal activity on cocklebur; type: in vivo, Xanthium strumarium L.; details: Xanthium strumarium, pre-emergence, 0.3 Kg/Ha, after 12-17 days, read-out: PREEMERGENCE HERBICIDAL ACTIVITY (% CONTROL) XANPE
Description: as §1, §2, §3, §4, §5

[9] = tested on: morningglory; experiment: postemergence herbicidal activity on morningglory; type: in vivo, Ipomea lacunosa or Ipomea hederacea; details: Ipomoea, post-emergence, 0.3 Kg/Ha, after 12-17 days, read-out: POSTEMERGENCE HERBICIDAL ACTIVITY (% CONTROL) IPOSS
Description: as §1, §2, §3, §4, §5

[10] = tested on: corn; experiment: postemergence herbicidal activity on corn; type: in vivo, Zea mays var. Pioneer 3732; details: Zea mays, post-emergence, 0.3 Kg/Ha, after 12-17 days, read-out: POSTEMERGENCE HERBICIDAL ACTIVITY (% CONTROL) CRN
Description: as §1, §2, §3, §4, §5

[11] = tested on: chickweed; experiment: preemergence herbicidal activity on chickweed; type: in vivo; details: Stellaria media, pre-emergence, 0.3 Kg/Ha, after 12-17 days, read-out: PREEMERGENCE HERBICIDAL ACTIVITY (% CONTROL) STEME
Description: as §1, §2, §3, §4, §5

[12] = tested on: johnsongrass; experiment: preemergence herbicidal activity on johnsongrass; type: in vivo; details: Sorghum halepense, pre-emergence, 0.3 Kg/Ha, after 12-17 days, read-out: PREEMERGENCE HERBICIDAL ACTIVITY (% CONTROL) SORHA
Description: as §1, §2, §3, §4, §5

[13] = tested on: johnsongrass; experiment: postemergence herbicidal activity on johnsongrass; type: in vivo; details: Sorghum halepense, post-emergence, 0.3 Kg/Ha, after 12-17 days, read-out: POSTEMERGENCE HERBICIDAL ACTIVITY (% CONTROL) SORHA
Description: as §1, §2, §3, §4, §5

[14] = tested on: velvetleaf; experiment: postemergence herbicidal activity on velvetleaf; type: in vivo; details: Abutilon theophrasti, post-emergence, 0.3 Kg/Ha, after 12-17 days, read-out: POSTEMERGENCE HERBICIDAL ACTIVITY (% CONTROL) ABUTH
Description: as §1, §2, §3, §4, §5

[15] = tested on: green foxtail; experiment: preemergence herbicidal activity on green foxtail; type: in vivo; details: Setaria viridis, pre-emergence, 0.3 Kg/Ha, after 12-17 days, read-out: PREEMERGENCE HERBICIDAL ACTIVITY (% CONTROL) SETVI
Description: as §1, §2, §3, §4, §5

[16] = tested on: blackgrass; experiment: postemergence herbicidal activity on blackgrass; type: in vivo, Aloepecurus myosuroides; details: Alopecurus myosuroides, post-emergence, 0.3 Kg/Ha, after 12-17 days, read-out: POSTEMERGENCE HERBICIDAL ACTIVITY (% CONTROL) ALOMY
Description: as §1, §2, §3, §4, §5

[17] = tested on: velvetleaf; experiment: preemergence herbicidal activity on velvetleaf; type: in vivo; details: Abutilon theophrasti, pre-emergence, 0.3 Kg/Ha, after 12-17 days, read-out: PREEMERGENCE HERBICIDAL ACTIVITY (% CONTROL) ABUTH
Description: as §1, §2, §3, §4, §5

[18] = tested on: morningglory; experiment: preemergence herbicidal activity on morningglory; type: in vivo, Ipomea lacunosa or Ipomea hederacea; details: Ipomoea, pre-emergence, 0.3 Kg/Ha, after 12-17 days, read-out: PREEMERGENCE HERBICIDAL ACTIVITY (% CONTROL) IPOSS
Description: as §1, §2, §3, §4, §5

[19] = tested on: cocklebur; experiment: postemergence herbicidal activity on cocklebur; type: in vivo, Xanthium strumarium L.; details: Xanthium strumarium, post-emergence, 0.3 Kg/Ha, after 12-17 days, read-out: POSTEMERGENCE HERBICIDAL ACTIVITY (% CONTROL) XANPE
Description: as §1, §2, §3, §4, §5

[20] = tested on: blackgrass; experiment: preemergence herbicidal activity on blackgrass; type: in vivo, Aloepecurus myosuroides; details: Alopecurus myosuroides, pre-emergence, 0.3 Kg/Ha, after 12-17 days, read-out: PREEMERGENCE HERBICIDAL ACTIVITY (% CONTROL) ALOMY
Description: as §1, §2, §3, §4, §5

| SMILES | activity at 300 g/ha [1] | activity at 300 g/ha [2] | activity at 300 g/ha [3] | activity at 300 g/ha [4] | activity at 300 g/ha [5] | activity at 300 g/ha [6] | activity at 300 g/ha [7] | activity at 300 g/ha [8] | activity at 300 g/ha [9] | activity at 300 g/ha [10] | activity at 300 g/ha [11] | activity at 300 g/ha [12] | activity at 300 g/ha [13] | activity at 300 g/ha [14] | activity at 300 g/ha [15] | activity at 300 g/ha [16] | activity at 300 g/ha [17] | activity at 300 g/ha [18] | activity at 300 g/ha [19] | activity at 300 g/ha [20] |
| --- | --- | --- | --- | --- | --- | --- | --- | --- | --- | --- | --- | --- | --- | --- | --- | --- | --- | --- | --- | --- |
| CC(=O)OC(C)(C)C(Cl)Cc1cc(-n2nc(C)n(C(F)F)c2=O)c(F)cc1Cl (stereo not drawn) [Compound 17] | 85% | 80% | 100% | 50% | 70% | 50% | 100% | 80% | 100% | 90% | 95% | 100% | 100% | 100% | 80% | 80% | 100% | 100% | 60% | – |
| CC(=O)OC(C)(C)C(Cl)Cc1cc(-c2nn(C)c(OC(F)F)c2Cl)c(F)cc1Cl (stereo not drawn) [Compound 18] | 20% | 80% | 100% | 40% | 70% | 20% | 100% | 60% | 100% | 75% | 100% | 80% | 80% | 100% | 100% | 80% | 100% | 100% | 90% | – |
| Cc1nn(-c2cc(CC(Cl)CO)c(Cl)cc2F)c(=O)n1C(F)F (stereo not drawn) [Compound 24] | 70% | 80% | 10% | 30% | 30% | 50% | 80% | 95% | 100% | 80% | – | 65% | 80% | 100% | 100% | 30% | 100% | 100% | 100% | 10% |
